Measurements reported in patent US20060135500A1, “Novel oral pharmaceutical suspension of cefdinir crystal” (Astellas Pharma Inc., priority 2004, published 2006).

How the values were obtained:
Format in all cases: physicochemical
[1] = Dispersibility comparison assay, Method 1 (visual observation of suspension in test tube); conditions: summary statement
Description: The dispersibility of two crystal forms of Cefdinir was compared by evaluating sedimentation rates of two crystal forms. The evaluating sedimentation rate was conducted by using two methods as follow. About 1250 mg of crystal form A or the monohydrate were dispersed in 50 mL of water (125 mg/5 mL), and the suspensions were vigorously shaken by hand. […] The pictures of suspension states were taken with time.

[2] = Solvent medium transformation (suspension in water or ethanol, PXRD of residual solid); conditions: water or ethanol (99.5), room temperature
Description: Form A and the monohydrate were suspended in water or ethanol (99.5) at room temperature, and the powder X-ray diffraction (PXRD) patterns of the residual solid materials were measured (Bruker AXS D8 Discover with GADDS).

[3] = Dispersibility comparison assay, Method 2 (change of transmittance at 650 nm); conditions: 5 mg in 10 mL of water (0.5 mg/mL)
Description: The dispersibility of two crystal forms of Cefdinir was compared by evaluating sedimentation rates of two crystal forms. The evaluating sedimentation rate was conducted by using two methods as follow.
5 mg of crystal form A or the monohydrate were dispersed in 10 mL of water (sample concentration: 0.5 mg/mL), and the suspensions were vigorously shaken. Then, the dispersed suspensions were transferred in the cell for UV measurement, and changes of the transmittances at 650 nm were measured.

dispersibility in aqueous solvent [1]	sedimentation rate in aqueous solvent [1]	Structure (SMILES)	crystalline conversion in aqueous and ethanol suspensions (PXRD of residual solid) [2]	change of transmittance of suspension at 650 nm [3]
higher than that of crystal form A	lower than that of crystal form A	C=CC1=C(C(=O)O)N2C(=O)C(NC(=O)C(=NO)c3csc(N)n3)[C@H]2SC1 (single isomer, unassigned) [crystal form C, 7-[2-(2-aminothiazol-4-yl)-2-hydroxyiminoacetamido]-3-vinyl-3-cephem-4-carboxyl ic acid (syn isomer)]		
		C=CC1=C(C(=O)O)N2C(=O)C(NC(=O)C(=NO)c3csc(N)n3)[C@H]2SC1 (single isomer, unassigned) [form A, 7-[2-(2-aminothiazol-4-yl)-2-hydroxyiminoacetamido]-3-vinyl-3-cephem-4-carboxyl ic acid (syn isomer)]	no crystalline conversion to other crystal form	faster increase than that of the monohydrate
